The values below come from patent US20240246960A1 (adMare Therapeutics Society, priority 2021, published 2024).

For series [1], the target named is T1, DNA-PK (Homo sapiens, UniProt P78527).
T1 construct: purchased Invitrogen PR9107A
Put plainly: DNA-PK Assay for Biochemical Enzymatic Inhibition (ADP Glo Kinase assay). To be noted: Table 1. The method in brief:
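Human DNA-PK (25 ng) preincubated 15 min with compounds (ten three-fold dilutions) in HEPES pH 7.5, MgCl2, KCl, calf thymus DNA buffer, then substrate 434.4 μM and ATP 64.4 μM (final) for 60 min at room temperature. ADP-Glo luminescence; percent inhibition fitted by four-parameter regression for IC50.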

The nature of series [2]: Microsomal stability assay, mouse liver microsomes. To be noted: for microsomal CLint at 0.1 uM: male, CD-1, mouse, liver microsomes, pH 7.4, Microsomal Stability Mouse Clint, 0.1 mg/mL microsomes, 0.1 uM compound.
For series [3], the target named is T2, DNA-PK phosphorylation at Serine 2056 (Homo sapiens, UniProt P78527).
T2 construct: host or cells: FaDu
Nature of the series: Cellular Assay for Inhibition of DNA-PK Phosphorylation at Serine 2056 (FaDu cells, neocarzinostatin, sandwich ELISA). The following applies: Table 1. The series is classed as cell-based. The method in brief: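 FaDu cells were pretreated with compound (0.3% DMSO) for 1 h, then exposed to neocarzinostatin at 1 μg/mL final for 2 h to induce DSBs. Protein-normalized lysates were assayed by MSD sandwich ELISA for total and pSer2056 DNA-PK. IC50 came from variable-slope fits of % inhibition relative to DMSO and NCS controls.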

For series [4], the target named is T3, pDNA-PK ser2056 induction in HCT116 spheroids (Homo sapiens, UniProt P78527).
T3 construct: endogenous in cells; host or cells: HCT116 multicellular tumour spheroids
Nature of the series: Multicellular tumour spheroid + radiation, pDNA-PK inhibition, HCT116. The series is classed as cell-based. The following applies: 20 Gy. Here is the method:
Multicellular tumour spheroids determination of compound inhibition of pDNA-PK induction following radiation. Tumour spheroids were grown to approximately 0.5 mm in diameter and irradiated with 20 Gy in combination with inhibitor test compounds to determine their potency. Inhibitor concentration for 50% reduction in pDNA-PK induction (IC50) was determined via immunohistochemical staining in spheroid cryosections taken 2 hours following radiation.
Spheroid, Cell Line: […], Immunohistochemical endpoint, pDNA-PK inhibition, EC50 in μm.
Spheroid+radiation pDNA-PK. Radiation: 20 Gy. Drug: serial dilution 5 or 10 μM down to 3.5 nM (11 wells). Spheroids: 3-6 spheroids per well (300-500 μm diameter). 20% O2 and 5% CO2. 96 well plate format.
Protocol: pre-incubate 1 hours with drug, irradiate with 20 Gy, post-incubate 2 hours with drug, freeze and cryosection ×3 replicates.
Endpoint: fluorescent immunostin pDNA-PK ser2056 and image on microscope.
Analysis: determine EC50 concentration that decreases pDNA-PK induction by 50% after radiation.
Multicellular tumour spheroids determination of compound inhibition of pDNA-PK induction following radiation. Tumour spheroids were grown to approximately 0.5 mm in diameter and irradiated with 20 Gy in combination with inhibitor test compounds to determine their potency. Inhibitor concentration for 50% reduction in pDNA-PK induction (IC50) was determined via immunohistochemical staining in spheroid cryosections taken 2 hours following radiation. For cell survival endpoint 8 Gy radiation was used and 3 hours following radiation spheroids were dissociated, counted and plated for colony forming endpoint.
Spheroid+radiation pDNA-PK. Radiation: 20 Gy. Drug: serial dilution 5 or 10 μM down to 3.5 nM (11 wells). Spheroids: 3-6 spheroids per well (300-500 μm diameter). 20% O2 and 5% CO2. 96 well plate format. Endpoint: fluorescent immunostain pDNA-PK ser2056 and image on microscope. Analysis: determine EC50 concentrations that decreases pDNA-PK induction […] after irradiation.
Multicellular tumour spheroids were used to determine potency of test compounds in a 3D tissue environment using inhibition of pDNA-PK induction following radiation or cell survival as the endpoint. For the pDNA-PK endpoint HCT116 or FaDU tumour spheroids were grown to approximately 0.5 mm in diameter and irradiated with 20 Gy in combination with inhibitor test compounds to determine their potency. Experiments were carried out in 96 well plates containing 0.7 mls of MEM media containing 10% FBS and 10 mM glucose under 20% O2 & 5% CO2 at 37° C. Following dilution of compounds 1:1000 from DMSO stocks, compounds were serially diluted from 10 μM down to 3.5 nM and 5-10 spheroids added. 96 well plates were constantly stirred to avoid spheroids settling during the course of the experiment. The inhibitor concentration for 50% reduction in pDNA-PK induction (EC50) was determined via immunohistochemical staining in spheroid cryosections taken 2 hours following radiation using anti-pDNA-PK (ser 2056) and fixed immediately in formalin following sectioning. For cell survival endpoint 8 Gy radiation was used and, 3 hours following radiation, spheroids were dissociated, counted and plated for colony forming endpoint. Data presented in the table compound potency as EC50 [μM].

The mark [5] stands for this setting: Example 7, spheroid, cell line HCT115 [sic], 20% O2, read-out: EC50 (pDNA-PK inhibition, immunohistochemical endpoint).
Setting [6] is: Example 8, spheroid, read-out: Cell line: HCT116 Immunohistochemical endpoint pDNA-PK inhibition EC50.
[7] abbreviates: Example 9 Study 2, 20% O2, read-out: Spheroid Cell line: HCT116 Immunohistochemical endpoint pDNA-PK inhibition EC50.

Like-named read-outs stand apart in the source and are kept apart here.

As to `C[C@]1(n2ccnc2)CC[C@@H](Oc2nc(N3CCOCC3)cc3ncccc23)CC1` [Compound 11, 4-(5-(((1s,4s)-4-(1H-imidazol-1-yl)-4-methylcyclohexyl)oxy)-1,6-naphthyridin-7-yl)morpholine], the IC50 in series [1] lay within 10 to 150 nM. In addition, in series [2], the “Microsomal Stability (mouse) % rem. 60 min” value is “E (% remaining = 0-25%)” and the microsomal CLint at 0.1 uM was over 116 µL/min/mg.

As to `O=C(N[C@H]1CC[C@@H](Oc2nc(N3CCOCC3)cc3ncccc23)CC1)N1CCOCC1` [Compound 14, N-((1s,4s)-4-((7-morpholino-1,6-naphthyridin-5-yl)oxy)cyclohexyl)morpholine-4-carboxamide], the IC50 fell in the range of 1 to 10 nM in series [1] and 100 to 1000 nM in series [3]. The EC50 in series [4] (setting [5]), in series [4] (setting [6]) and in series [4] (setting [7]) was 1000 to 10000 nM each time. Further, the “Microsomal Stability (mouse) % rem. 60 min” value in series [2] is listed as “G (% remaining = 50-75%)”. Also, in series [2], the microsomal CLint at 0.1 uM is under 116 µL/min/mg.

In the case of `FC(F)(F)c1cnn([C@H]2CC[C@@H](Oc3nc(N4CCOCC4)cc4ncccc34)CC2)c1` [Compound 17b, 4-(5-(((1s,4s)-4-(4-(trifluoromethyl)-1H-pyrazol-1-yl)cyclohexyl)oxy)-1,6-naphthyridin-7-yl)morpholine], the concentration for half-maximal inhibition (IC50) in series [1] was in the range of 10 to 150 nM. In addition, in series [2], the “Microsomal Stability (mouse) % rem. 60 min” value is “E (% remaining = 0-25%)” and the microsomal CLint at 0.1 uM is over 116 µL/min/mg.

Consider `Cc1nn([C@H]2CC[C@@H](Oc3nc(N4CCOCC4)cc4ncccc34)CC2)cc1C(F)(F)F` [Compound 17g, 4-(5-(((1s,4s)-4-(3-methyl-4-(trifluoromethyl)-1H-pyrazol-1-yl)cyclohexyl)oxy)-1,6-naphthyridin-7-yl)morpholine], for which the IC50 in series [1] was 1 to 10 nM; in series [3], 1000 to 10000 nM. Besides, the “Microsomal Stability (mouse) % rem. 60 min” value in series [2] is on record as “E (% remaining = 0-25%)”. The molecule also came in with a microsomal CLint at 0.1 uM in series [2] of over 116 µL/min/mg.

In the case of `c1cnc2cc(N3CCOCC3)nc(O[C@H]3CC[C@@H](n4cnnn4)CC3)c2c1` [Compound 17l, 4-(5-(((1s,4s)-4-(1H-tetrazol-1-yl)cyclohexyl)oxy)-1,6-naphthyridin-7-yl)morpholine], in series [2], the “Microsomal Stability (mouse) % rem. 60 min” value is “E (% remaining = 0-25%)” and the microsomal CLint at 0.1 uM is over 116 µL/min/mg.

As for `c1cnc2cc(N3CCOCC3)nc(O[C@H]3CC[C@@H](n4ncnn4)CC3)c2c1` [Compound 17m, 4-(5-(((1s,4s)-4-(2H-tetrazol-2-yl)cyclohexyl)oxy)-1,6-naphthyridin-7-yl)morpholine], the IC50 in series [1] lay in the range of 1 to 10 nM; in series [3], 100 to 1000 nM. Further, the 50% effective concentration (EC50) in series [4] (setting [5]), in series [4] (setting [6]) and in series [4] (setting [7]) was 1000 to 10000 nM throughout. Also, the “Microsomal Stability (mouse) % rem. 60 min” value in series [2] is listed as “E (% remaining = 0-25%)”. In addition, the intrinsic clearance (microsomal CLint) at 0.1 uM in series [2] was over 116 µL/min/mg.

In the case of `Brc1cnc2cc(N3CCOCC3)nc(O[C@H]3CC[C@@H](Nc4ncccn4)CC3)c2c1` [Compound 18a, N-((1s,4s)-4-((3-Bromo-7-morpholino-1,6-naphthyridin-5-yl)oxy)cyclohexyl)pyrimidin-2-amine], the concentration for half-maximal inhibition (IC50) in series [1] is 1 to 10 nM; in series [3], 100 to 1000 nM. Further, the EC50 in series [4] (setting [5]), in series [4] (setting [6]) and in series [4] (setting [7]) was 1000 to 10000 nM in each case. Further, the “Microsomal Stability (mouse) % rem. 60 min” value in series [2] is “E (% remaining = 0-25%)”. Further, in series [2], the microsomal CLint at 0.1 uM is over 116 µL/min/mg.

As to `COc1cnc(N[C@H]2CC[C@@H](Oc3nc(N4CCOCC4)cc4ncccc34)CC2)nc1` [Compound 20c, 5-Methoxy-N-((1s,4s)-4-((7-morpholino-1,6-naphthyridin-5-yl)oxy)cyclohexyl)pyrimidin-2-amine], the results for the IC50 in series [1] and in series [3] were 1 to 10 nM and under 100 nM, respectively. For the same molecule, the EC50 in series [4] (setting [5]), in series [4] (setting [6]) and in series [4] (setting [7]) was 500 to 1000 nM each time. Besides, the “Microsomal Stability (mouse) % rem. 60 min” value in series [2] is given as “E (% remaining = 0-25%)”. Further, the intrinsic metabolic clearance (microsomal CLint) at 0.1 uM in series [2] was over 116 µL/min/mg.

Regarding `c1cnc(N[C@H]2CC[C@H](Oc3nc(N4CCOCC4)cc4ncccc34)CC2)nc1` [Compound 24, N-((1r,4r)-4-((7-morpholino-1,6-naphthyridin-5-yl)oxy)cyclohexyl)pyrimidin-2-amine], the IC50 in series [1] fell in the range of 10 to 150 nM. In addition, in series [2], the “Microsomal Stability (mouse) % rem. 60 min” value is on record as “F (% remaining = 25-50%)” and the microsomal CLint at 0.1 uM is over 116 µL/min/mg.

Regarding `c1cncc(N[C@H]2CC[C@@H](Oc3nc(N4CCOCC4)cc4ncccc34)CC2)c1` [Compound 26, N-((1s,4s)-4-((7-morpholino-1,6-naphthyridin-5-yl)oxy)cyclohexyl)pyridin-3-amine], the half-maximal inhibitory concentration (IC50) in series [1] was 0.5 to 1 nM; in series [3], 100 to 1000 nM. Also, the EC50 in series [4] (setting [5]), in series [4] (setting [6]) and in series [4] (setting [7]) was 1000 to 10000 nM in each case. Moreover, the “Microsomal Stability (mouse) % rem. 60 min” value in series [2] is recorded as “E (% remaining = 0-25%)”. Also, the microsomal CLint at 0.1 uM in series [2] is over 116 µL/min/mg.

`c1cnnc(N[C@H]2CC[C@@H](Oc3nc(N4CCOCC4)cc4ncccc34)CC2)c1` [Compound 29, N-((1s,4s)-4-((7-morpholino-1,6-naphthyridin-5-yl)oxy)cyclohexyl)pyridazin-3-amine]: the IC50 in series [1] was under 0.5 nM; in series [3], under 100 nM. Further, the concentration giving a half-maximal response (EC50) in series [4] (setting [5]) and in series [4] (setting [7]) was 500 to 1000 nM throughout. The “Microsomal Stability (mouse) % rem. 60 min” value in series [2] is recorded as “E (% remaining = 0-25%)”. This molecule also displayed a microsomal CLint at 0.1 uM in series [2] of over 116 µL/min/mg.

Turning to `CN(c1ncccn1)[C@H]1CC[C@@H](Oc2nc(N3CCOCC3)cc3ncc(NS(C)(=O)=O)cc23)CC1` [Compound 198, N-(5-(((1s,4s)-4-(methyl(pyrimidin-2-yl)amino)cyclohexyl)oxy)-7-morpholino-1,6-naphthyridin-3-yl)methanesulfonamide], the IC50 was 0.5 to 1 nM in series [1] and under 100 nM in series [3]. In addition, the EC50 in series [4] (setting [5]) and in series [4] (setting [7]) was 500 to 1000 nM throughout.

For `N#Cc1cnc2cc(N3CCOCC3)nc(O[C@H]3CC[C@@H](Nc4ncccn4)CC3)c2c1` [Compound 200a, 7-morpholino-5-(((1s,4s)-4-(pyrimidin-2-ylamino)cyclohexyl)oxy)-1,6-naphthyridine-3-carbonitrile], the IC50 is 0.5 to 1 nM in series [1] and 100 to 1000 nM in series [3]. Also, the EC50 in series [4] (setting [5]) and in series [4] (setting [7]) was 1000 to 10000 nM throughout.

As for `COc1cnc(N[C@H]2CC[C@@H](Oc3nc(N4CCOCC4)cc4ncc(I)cc34)CC2)nc1` [Compound 201, N-((1s,4s)-4-((3-iodo-7-morpholino-1,6-naphthyridin-5-yl)oxy)cyclohexyl)-5-methoxypyrimidin-2-amine], the concentration for half-maximal inhibition (IC50) in series [1] lay in the range of 1 to 10 nM; in series [3] it was 10000 to 30000 nM. Also, the half-maximal effective concentration (EC50) in series [4] (setting [5]) and in series [4] (setting [7]) was 10000 to 100000 nM each time.
